These are literature values, as cited in patent US20090117584A1, “Non-Human mammalian Arthritis Model Featuring Human Antibodies Against Citrul-Linated Proteins” (GENMAB A/S, priority 2005, published 2009).

One series has as its system anti-CCP antibodies. To be noted: RA patients; anti-TNFα therapy in combination with low-dose methotrexate.
The test system of the next series is human IgG. To be noted: SCID mice engrafted with human RA tissue, treated with T-614.

“infliximab: anti-TNFalpha therapy, named in the cited title”: the anti-CCP titers result in the series on anti-CCP antibodies is “decrease”.
`CS(=O)(=O)Nc1cc2occ(NC=O)c(=O)c2cc1Oc1ccccc1` [T-614]: in the series on human IgG, the “levels of human IgG in SCID-HuRag mice” value is “decreases”.
